# Structures can show the parent of a compound that is named as a salt.
# How the values were obtained:
# [1] = molecular target: T1, recombinant 5-HT2A receptor (human) (Homo sapiens, UniProt P28223); assay: 5-HT2A competition binding assay ([3H]-Ketanserin SPA)
# T1 construct: expressed in transfected cells
# Protocol: [^3H]-Ketanserin binding experiments are carried out in SPA 96-well format. Membranes used in this assay are prepared from AV-12 cells stably expressing recombinant 5-HT2A receptor (human). The incubation is initiated by the addition of a mixture of WGA YSi SPA beads (1 mg/well, Perkin Elmer (MA, USA), RPNQ0011) and 2 μg membranes to assay buffer (67 mM Tris, 0.5 mM EDTA; pH 7.6) containing 3.1 nM [^3H]-Ketanserin and varying concentrations of the test compound (10 point concentration response curves). Non-specific binding is determined in the presence of 20 μM 1-(1-Naphthyl)piperazine. Samples were incubated for four hours at room temperature (22° C.) and then read in a Microbeta Trilux.
# (§1) Curves are evaluated using a 4-parameter logistic nonlinear equation to obtain the concentration of competitor causing 50% inhibition of radioligand binding (IC50). Equilibrium dissociation constants (Ki) are calculated according to the equation Ki=IC50/(1+L/Kd), where L equals the concentration of radioligand used in the experiment and Kd equals the equilibrium dissociation constant of the radioligand for the receptor, determined from standard saturation analysis or homologous competition experiments. Reported values for Ki, where n values are indicated, are shown as geometric mean±the standard error of the mean (SEM), with the number of replicate determinations indicated by n. […]
# 5-HT6 = 5-HT6 (Homo sapiens, UniProt P50406); assay: 5-HT6 binding
# Description: (§2) Further, the compounds of the invention may be tested in binding assays and functional activity assays by well known methods for other physiologically important receptors such as, but not limited to, the hERG channel, other serotonin receptors (specifically 5-HT1A, 5-HT1B, 5-HT1D, 5-HT1E, 5-HT1F receptors, lack of agonist activity at 5-HT2B receptors, 5-HT2C, 5-HT4, 5-HTS, 5-HT6, and 5-HT7 receptors), muscarinic receptors, dopaminergic receptors (specifically D1, D2, and D3), GABAA receptors, adrenergic receptors and monoamine transporters. Certain exemplified compounds are tested at these receptors and are shown to lack significant activity.
# Dopamine D2 = Dopamine D2 (Homo sapiens, UniProt P14416); assay: Dopamine D2 binding
# Description: as §2
# Dopamine D1 = Dopamine D1 (Homo sapiens, UniProt P21728); assay: Dopamine D1 binding
# Description: as §2
# 5-HT1E = 5-HT1E (Homo sapiens, UniProt P28566); assay: 5-HT1E binding
# Description: as §2
# [2] = molecular target: T2, recombinant 5-HT2c receptor (human) (Homo sapiens, UniProt P28335); assay: 5-HT2c competition binding assay ([125I]-DOI SPA)
# T2 construct: expressed in transfected cells
# Protocol: [^125I]-(±)DOI binding experiments are carried out in SPA 96-well format. Membranes used in this assay are prepared from AV-12 cells stably expressing recombinant 5-HT2c receptor (human). The incubation is initiated by the addition of a mixture of WGA PVT SPA beads (0.5 mg/well, Perkin Elmer (MA, USA), RPNQ0001) and 2.5 μg membranes to assay buffer (50 mM Tris-HCl, 10 mM MgCl2, 0.5 mM EDTA, 10 μM pargyline, 0.1% ascorbic acid, pH7.4) containing 0.2 nM [[^125I]-(±)DOI and varying concentrations of the test compound (10 point concentration response curves). Non-specific binding is determined in the presence of 20 μM 1-(1-Naphthyl)piperazine. Samples are incubated for four hours at room temperature (22° C.) and then read in a Microbeta Trilux.
# as §1, with “experiments.” for “experiments. Reported values for Ki, where n values are indicated, are shown as geometric mean±the standard error of the mean (SEM), with the number of replicate determinations indicated by n.”
# 5-HT1D = 5-HT1D (Homo sapiens, UniProt P28221); assay: 5-HT1D binding
# Description: as §2
# T1 sequence (P28223 whole entry): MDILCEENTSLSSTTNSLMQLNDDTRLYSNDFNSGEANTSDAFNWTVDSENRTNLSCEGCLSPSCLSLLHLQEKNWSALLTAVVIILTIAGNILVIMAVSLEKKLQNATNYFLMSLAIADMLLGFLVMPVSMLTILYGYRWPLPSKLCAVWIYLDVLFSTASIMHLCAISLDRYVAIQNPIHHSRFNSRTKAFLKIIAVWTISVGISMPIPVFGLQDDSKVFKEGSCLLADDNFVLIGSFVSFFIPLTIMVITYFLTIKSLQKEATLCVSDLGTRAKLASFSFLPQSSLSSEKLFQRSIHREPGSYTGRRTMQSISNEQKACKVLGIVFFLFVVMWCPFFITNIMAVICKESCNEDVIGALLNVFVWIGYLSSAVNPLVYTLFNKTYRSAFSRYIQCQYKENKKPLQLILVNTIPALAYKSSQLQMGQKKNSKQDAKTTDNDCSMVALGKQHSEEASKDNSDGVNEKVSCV
# 5-HT1E, sequence (P28566 whole entry, species assumed): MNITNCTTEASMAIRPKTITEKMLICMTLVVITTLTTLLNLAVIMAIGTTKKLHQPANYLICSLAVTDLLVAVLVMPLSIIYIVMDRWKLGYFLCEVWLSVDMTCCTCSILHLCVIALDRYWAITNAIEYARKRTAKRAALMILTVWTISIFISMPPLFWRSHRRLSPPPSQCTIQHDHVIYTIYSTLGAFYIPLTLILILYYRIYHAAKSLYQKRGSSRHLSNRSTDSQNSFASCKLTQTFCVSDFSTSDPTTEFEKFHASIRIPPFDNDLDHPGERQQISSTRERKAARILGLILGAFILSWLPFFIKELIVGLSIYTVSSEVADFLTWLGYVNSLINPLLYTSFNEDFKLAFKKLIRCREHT
# T2 sequence (P28335 33-458): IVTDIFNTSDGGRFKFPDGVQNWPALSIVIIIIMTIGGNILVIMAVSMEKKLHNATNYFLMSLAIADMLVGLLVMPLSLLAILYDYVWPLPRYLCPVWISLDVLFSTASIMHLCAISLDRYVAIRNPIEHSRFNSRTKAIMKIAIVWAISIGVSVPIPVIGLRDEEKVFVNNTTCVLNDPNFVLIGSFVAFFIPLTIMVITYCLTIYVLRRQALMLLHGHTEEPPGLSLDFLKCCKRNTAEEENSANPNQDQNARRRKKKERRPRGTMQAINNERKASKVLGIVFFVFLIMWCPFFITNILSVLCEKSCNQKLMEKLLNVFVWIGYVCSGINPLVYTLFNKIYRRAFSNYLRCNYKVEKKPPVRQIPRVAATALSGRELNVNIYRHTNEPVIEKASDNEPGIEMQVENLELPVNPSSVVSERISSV
# Dopamine D1, sequence (P21728 whole entry): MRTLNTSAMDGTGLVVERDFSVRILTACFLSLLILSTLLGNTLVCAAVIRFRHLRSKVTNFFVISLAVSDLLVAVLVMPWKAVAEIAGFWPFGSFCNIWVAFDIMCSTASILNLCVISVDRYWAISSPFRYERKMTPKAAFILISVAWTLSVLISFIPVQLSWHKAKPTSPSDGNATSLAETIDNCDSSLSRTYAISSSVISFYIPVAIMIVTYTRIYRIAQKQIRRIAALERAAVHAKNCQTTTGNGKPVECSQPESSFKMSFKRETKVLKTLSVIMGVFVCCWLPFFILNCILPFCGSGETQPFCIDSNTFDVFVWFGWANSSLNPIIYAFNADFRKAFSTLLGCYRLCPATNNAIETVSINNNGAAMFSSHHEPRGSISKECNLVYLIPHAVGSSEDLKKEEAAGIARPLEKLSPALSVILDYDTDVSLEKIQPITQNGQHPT
# 5-HT6, sequence (P50406 whole entry, species assumed): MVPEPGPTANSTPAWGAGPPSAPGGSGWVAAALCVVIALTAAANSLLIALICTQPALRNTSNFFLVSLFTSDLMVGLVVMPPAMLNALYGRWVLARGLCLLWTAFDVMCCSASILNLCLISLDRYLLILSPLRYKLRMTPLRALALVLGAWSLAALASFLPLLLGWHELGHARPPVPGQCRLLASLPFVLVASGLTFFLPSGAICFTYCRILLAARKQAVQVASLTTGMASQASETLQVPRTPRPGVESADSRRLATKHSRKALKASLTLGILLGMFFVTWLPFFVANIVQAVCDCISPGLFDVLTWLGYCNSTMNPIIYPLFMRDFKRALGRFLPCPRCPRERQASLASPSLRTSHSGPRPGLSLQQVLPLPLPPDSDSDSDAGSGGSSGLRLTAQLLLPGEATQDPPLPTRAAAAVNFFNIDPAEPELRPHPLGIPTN
# 5-HT1D, sequence (P28221 whole entry, species assumed): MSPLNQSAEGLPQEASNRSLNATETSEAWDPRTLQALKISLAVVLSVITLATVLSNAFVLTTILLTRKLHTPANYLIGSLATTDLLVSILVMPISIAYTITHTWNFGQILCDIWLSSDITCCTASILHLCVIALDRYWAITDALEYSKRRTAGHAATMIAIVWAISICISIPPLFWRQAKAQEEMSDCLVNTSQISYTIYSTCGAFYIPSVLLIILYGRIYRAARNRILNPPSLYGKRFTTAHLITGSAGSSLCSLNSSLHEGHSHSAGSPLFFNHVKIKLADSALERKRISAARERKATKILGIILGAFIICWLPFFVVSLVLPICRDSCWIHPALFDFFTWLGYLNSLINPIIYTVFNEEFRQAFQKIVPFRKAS
# Dopamine D2, sequence (P14416 whole entry): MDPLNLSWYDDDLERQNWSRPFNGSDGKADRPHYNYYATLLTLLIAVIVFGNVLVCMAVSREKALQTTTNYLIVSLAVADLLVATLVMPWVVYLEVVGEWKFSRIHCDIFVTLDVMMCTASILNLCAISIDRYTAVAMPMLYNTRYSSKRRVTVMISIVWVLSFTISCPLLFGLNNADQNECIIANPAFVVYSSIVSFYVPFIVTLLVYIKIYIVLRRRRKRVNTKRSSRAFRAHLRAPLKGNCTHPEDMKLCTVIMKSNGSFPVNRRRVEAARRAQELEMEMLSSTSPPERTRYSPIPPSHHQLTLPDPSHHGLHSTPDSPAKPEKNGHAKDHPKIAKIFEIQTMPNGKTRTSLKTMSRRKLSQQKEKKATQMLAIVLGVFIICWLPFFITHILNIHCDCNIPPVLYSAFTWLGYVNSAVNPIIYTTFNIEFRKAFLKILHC
smiles,measurement,setting,value
"Cc1cc2n(c1)Cc1cc(Cl)ccc1N=C2N1CCN(CC(C)(C)C(=O)O)CC1 [Example 13, 3-[4-(7-Chloro-2-methyl-5H-pyrrolo[2,1-c][1,4]benzodiazepin-11-yl)piperazin-1-yl]-2,2-dimethylpropanoic acid dihydrochloride]",Ki,[1],63.2 nM
same,Ki,5-HT6,> 5830 nM
same,Ki,Dopamine D2,3420 nM
same,Ki,Dopamine D1,1860 nM
same,Ki,5-HT1E,> 5370 nM
same,Ki,[2],2370 nM
same,Ki,5-HT1D,> 8550 nM
